In PubChem BioAssay (NCI):
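Cultured in 96-well plates, cells were exposed to test compound for 48 hours across five concentrations. At the TGI there is no net growth.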

Legend:
Test in all cases: DTP human tumour cell line panel, 48 h
[1] = test system: SK-MEL-2 melanoma
[2] = test system: SN12C renal
[3] = test system: HT29 colon
[4] = test system: SK-OV-3 ovarian
[5] = test system: KM12 colon
[6] = test system: MALME-3M melanoma
[7] = test system: ACHN renal
[8] = test system: NCI-H522 lung
[9] = test system: OVCAR-4 ovarian
[10] = test system: HCC-2998 colon
[11] = test system: SNB-75 CNS
[12] = test system: CCRF-CEM leukemia
[13] = test system: HCT-116 colon
[14] = test system: OVCAR-3 ovarian
[15] = test system: U251 CNS
[16] = test system: MOLT-4 leukemia
[17] = test system: NCI-H460 lung
[18] = test system: LOX IMVI melanoma
[19] = test system: NCI/ADR-RES ovarian
[20] = test system: MCF7 breast

Row | SMILES | TGI [1] | TGI [2] | TGI [3] | TGI [4] | TGI [5] | TGI [6] | TGI [7] | TGI [8] | TGI [9] | TGI [10] | TGI [11] | TGI [12] | TGI [13] | TGI [14] | TGI [15] | TGI [16] | TGI [17] | TGI [18] | TGI [19] | TGI [20]
1 | Cc1cc2n([O-])cccc-2[n+](=O)c1 | > 100 µM | > 100 µM | > 100 µM | > 100 µM | > 100 µM | > 100 µM | > 100 µM | > 100 µM | > 100 µM | > 100 µM | > 100 µM | > 100 µM | > 100 µM | > 100 µM | > 100 µM | > 100 µM | > 100 µM |  |  | 
2 | Nc1c(N=Nc2ccc(-c3ccc(N=Nc4c(O)ccc5cc(S(=O)(=O)O)cc(S(=O)(=O)O)c45)cc3)cc2)c(S(=O)(=O)O)cc2cc(S(=O)(=O)O)c(N=Nc3ccccc3)c(O)c12 | > 100 µM | > 100 µM | > 100 µM | > 100 µM | > 100 µM | > 100 µM |  | > 100 µM | > 100 µM | > 100 µM | 90.7 µM | > 100 µM | > 100 µM | > 100 µM | > 100 µM | > 100 µM | > 100 µM | > 100 µM | > 100 µM | > 100 µM
3 | C=C[C@@](C)(/C=C/c1ccc(O)cc1)CCC=C(C)C | 37.3 µM | 35.3 µM | 32.8 µM | 30 µM |  |  | 22.4 µM | 30.9 µM | 28.6 µM | 35.5 µM | 26.9 µM | 31 µM | 32.2 µM | 32.2 µM | 30.6 µM | 28 µM | 29.2 µM | 32.2 µM | 31 µM | 35.2 µM
4 | COc1cc2cc(C(=O)N3CC(CCl)c4c3cc([N+](C)(C)Cc3ccc([N+](=O)[O-])n3C)c3ccccc43)[nH]c2c(OC)c1OC (centres undefined) | 1.5 µM | > 62.4 µM | > 100 µM | > 100 µM | > 23.8 µM | 25.6 µM | > 100 µM | 0.981 µM | 6.35 µM | 2.48 µM | 7.18 µM | 18.6 µM | 6.92 µM | > 100 µM | > 100 µM | 16 µM | 5.41 µM | 12.3 µM | 4.38 µM | 12.5 µM
